Measurements taken from article PMC10960024, “Diindoles produced from commensal microbiota metabolites function as endogenous CAR/Nr1i3 ligands” (Nature Communications, 2024).
Where “and” joins values, the source holds several entries; their conditions need not be identical. Equal values may be shown once. Blank lines part the entries; values can stand above or below the compound they belong to.

Legend:
[1] = Liver-to-body weight ratio after treatment; format: in vivo; conditions: post-treatment, compared to control
Method: (§1) 12–15 week-old C57BL/6 J mice were obtained from Jackson Laboratories and were housed on a standard 12 h light/dark cycle. Nr1i3^−/− mice with C57BL/6 J background were obtained from David Moore’s lab (PMID: 11057673) at Baylor College of Medicine, and used at 13–26 weeks of age. Wild-type male, female and Nr1i3^−/− male mice were used in this study, due to known sex-specific CAR activities. Mice were housed in groups of 2–5 mice per cage on a standard 12 h light/dark cycle and fed with rodent chow diet (Inotiv, Teklad rodent diet 2918). Temperature was maintained at 21 °C with a range of 21–24 °C and humidity at 16–51%. National Institute of Health guidelines for the care and use of laboratory animals were followed with all experiments performed as directed by the Institutional Animal Care and Use Committee at the University of Illinois, Urbana-Champaign (UIUC, IACUC protocol: 22183). Mice were acclimatized to the UIUC mouse facility for 2 weeks prior to experiments. DIM and DIE were dissolved in 5% DMSO in corn oil and injected intraperitoneally at 25 mg/kg once daily for three days. After 4 h of the third injection, mice were sacrificed to collect serum, livers and intestines. TCPOBOP was dissolved in corn oil and injected intraperitoneally at 3 mg/kg once and the livers collected after 3 days for further studies. When used to block CAR activity, 100 mg/kg androstenol was injected intraperitoneally 15 min prior to the first DIM or DIE treatment. RNA from mice livers was isolated using TRIzol (Invitrogen) reagent using the manufacturer’s instructions. 3–5 µg of RNA was used to synthesize cDNA with random primers (NEBioLabs) and Maxima Reverse Transcriptase kits (Thermo Fisher Scientific). cDNA was further diluted, and 50 ng was used for SYBR green (Thermo Fisher Scientific) based qRT-PCR. Relative gene expression was calculated by the delta Ct method and normalized to 36b4 levels as loading controls. qPCR primers for gene expression analysis are listed in Supplementary Table 3.

[2] = test system: mCAR target genes (cyp2b10, cyp3a11, sult2a1) in mouse liver; test: qPCR of mCAR target genes in mouse liver after intraperitoneal treatment; format: in vivo
Method: as §1

[3] = target: T1, His-tagged CAR-LBD-SRC1 fusion protein (Homo sapiens, UniProt Q14994); test: Isothermal titration calorimetry (ITC); format: binding; conditions: 25 °C; ligand 50 μM; mean of two independent experiments
T1 construct: The human CAR LBD (Lys^108 – Ser^352) was amplified by PCR from cDNA; HIS6; made in house; host or cells: E. coli BL21(DE3)
T1 sequence (Q14994 108-352): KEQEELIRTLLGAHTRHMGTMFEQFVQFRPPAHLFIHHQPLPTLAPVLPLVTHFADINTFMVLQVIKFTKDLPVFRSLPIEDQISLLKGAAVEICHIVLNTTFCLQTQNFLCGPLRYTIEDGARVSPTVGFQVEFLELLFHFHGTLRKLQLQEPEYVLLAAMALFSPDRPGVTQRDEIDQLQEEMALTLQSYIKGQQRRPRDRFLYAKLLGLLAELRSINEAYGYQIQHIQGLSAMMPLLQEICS
Method: Purified hCAR-SRC1 protein (200–250 µM) was dissolved in 120 μL of PBS and supplemented with 0.5% DMSO. All experiments were performed in a MicroCal Auto-iTC200 instrument (Malvern Panalytical, Marlvern, United Kingdom) at 25 °C. Ligands were used at a concentration of 50 μM. Protein was titrated into cells in a series of 19 injections (injection 1 = 0.4 µL, injection 2–19 = 2 µL) 180 s apart. Control experiments performed by injection of the potein into […] yielded insignificant heats of dilution, and heat responses were subtracted. Integrated heat effects were analyzed using Microcal Origin 7 software (Malvern Instruments).

[4] = target: T2, GAL4-hCAR LBD (Homo sapiens, UniProt Q14994); test: HEK293T GAL4-hCAR dual transfection reporter assay with PK11195 (antagonist displacement); format: cell-based; conditions: for HEK293 GAL4-hCAR EC50: basal reporter activity reduced with 1 µM PK11195
T2 construct: chimeric yeast GAL4 DBD fused to an hCAR LBD; expressed in transfected cells; host or cells: HEK293T (ATCC, CRL-3216)
T2 sequence (Q14994 109-352 limits assumed): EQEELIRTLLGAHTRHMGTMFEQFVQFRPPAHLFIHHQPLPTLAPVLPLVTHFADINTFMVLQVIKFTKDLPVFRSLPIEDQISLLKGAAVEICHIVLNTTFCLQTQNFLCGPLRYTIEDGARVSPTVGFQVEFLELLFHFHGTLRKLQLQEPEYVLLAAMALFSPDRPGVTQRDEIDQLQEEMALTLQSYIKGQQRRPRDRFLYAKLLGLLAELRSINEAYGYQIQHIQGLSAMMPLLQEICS
From the text: The GAL4-hCAR, UAS-Luc, pcDNA-GAL4, pGL4-Renilla-Luc and pGEM plasmids were generously provided by Dr. David Mangelsdorf. The GAL4-hCAR plasmid encodes a constitutively expressed chimeric yeast GAL4 DBD fused to an hCAR LBD. The UAS-Luc plasmid encodes a Firefly luciferase reporter under the control of a GAL4 response element. The pcDNA plasmid encodes a constitutively expressed GAL4 DBD and was used as a control vector to determine non-specific luminescence in all HEK293T cellular reporter assays. The pGL4-Renilla-Luc plasmid encodes a constitutively expressed Renilla luciferase reporter and was used as a transfection control in the HEK293T cellular reporter assays.
HEK293T cells (ATCC, CRL-3216) were seeded at a density of 40,000 cells per well in white flat-bottom 96-well microplates (Greiner CellStar, 655073) in Dulbecco’s Modified Eagle Medium (DMEM) (2.5 g/l glucose) supplemented with 10% stripped fetal bovine serum with 100 units/ml of penicillin and incubated for 24 h at 37 °C. Transfection was carried out using 0.3 µL/well of Lipofectamine 2000 (Thermo Fisher Scientific, 11668019). Cells were transfected with 10 ng/well of either pcDNA or GAL4-hCAR, 50 ng/well of UAS-Luc, 5 ng/well of pGL4-Renilla-Luc, and 85 ng/well of pGEM for a total of 150 ng/well of DNA. […] Cells were incubated for 16-hours to allow build-up of luciferase and then processed using the Dual-Glo Luciferase Assay System (Promega, E2940) as per the manufacturer’s instructions. Incubations were performed in four technical replicates.

[5] = target: T3, hCAR LBD-SRC1 protein (Homo sapiens, UniProt Q14994); test: Fluorescence thermal shift assay (TSA); format: binding; conditions: for Tm: diindoles at 12.5 µM, APO Tm 51.5 °C, means of triplicates; for stabilization of CAR-LBD-SRC1 fusion (thermal stability): dose-response 0.4-50 µM
T3 construct: The human CAR LBD (Lys^108 – Ser^352) was amplified by PCR from cDNA; HIS6; made in house; host or cells: E. coli BL21(DE3)
T3 sequence (Q14994 108-352): T1 sequence (Q14994 108-352)
Method: Purified hCAR LBD-SRC1 protein was assayed in 137 mM NaCl, 2.7 mM KCl, 10 mM Na2HPO4, and 1.8 mM KH2PO4, 0.5% DMSO, pH 7.4, at a final concentration of 2.2 µM. SYPRO Orange was used at a final concentration of 10× (Invitrogen, S6650). Each sample was divided into three 25 µL replicates. Sample solutions were dispensed into 96-well optical reaction plates (Thermo Fisher Scientific, 4306737) and sealed with optical PCR plate sheets (Thermo Fisher Scientific, AB-1170). TSA experiments were carried out using a QuantStudio 12 K Flex Real Time PCR System (Applied Biosystems). The temperature was ramped up from 25 °C to 95 °C at a rate of 0.3 °C/min, and SYPRO orange fluorescence monitored. Raw fluorescence data and melting temperatures were determined using nonlinear regression curve fitting using GraphPad Prism 9.

[6] = target: T4, GST-hCAR-LBD (Homo sapiens, UniProt Q14994); test: LanthaScreen TR-FRET PGC1α coactivator recruitment assay; format: biochemical
T4 construct: GST-hCAR-LBD (5 nM), terbium-labeled anti-GST antibody (5 nM); purchased Invitrogen A15141
T4 sequence (Q14994 109-352 limits assumed): T2 sequence (Q14994 109-352 limits assumed)
Method: LanthaScreen^TM TR-FRET hCAR coactivator assays were performed according to manufacturer’s instructions (Invitrogen, A15141). Test compounds were incubated for 2 h at room temperature with GST-hCAR-LBD (5 nM), terbium-labeled anti-GST antibody (5 nM), and Fluorescein-PGC1α coactivator peptide (125 nM). Incubations were performed in four technical replicates. TR-FRET emissions were measured using a Tecan Infinite F200 Fluorescence Microplate Reader. Results were expressed as the ratio of fluorescence intensity at 520 nm (fluorescein emission excited by terbium emissions) and 495 nm (terbium emissions).

[7] = target: T5, hCAR (Homo sapiens, UniProt Q14994); test: Bottom-up HDX-MS of hCAR with ligand; format: binding; conditions: 100 µM ligand
T5 construct: The human CAR LBD (Lys^108 – Ser^352) was amplified by PCR from cDNA; HIS6; made in house; host or cells: E. coli BL21(DE3)
T5 sequence (Q14994 108-352): T1 sequence (Q14994 108-352)
Method: Human CAR protein was prepared at 10 µM in 100 mM ammonium acetate pH 7.25 and diluted into either equilibration buffer (10 mM phosphate buffer, pH 7.5) or deuterated reaction buffer (10 mM phosphate buffer, 150 mM NaCl, pH 7.5 in D2O). After labeling times of 1, 10 or 30 min at 25 °C, samples were mixed with equal volumes of quench buffer (100 mM phosphate buffer, pH 2.5) at 0 °C. […] HDX-MS was performed using a commercial Waters HDX system (M-class ACQUITY UPLC and Water Cyclic IMS Mass Spectrometer). Leucine enkephalin was used for mass correction, and all time points were carried out in triplicate. Samples were digested using an Enzymate BEH Pepsin column (2.1 × 30 mm, Waters) at 15 °C. Peptides were desalted on an ACQUITY UPLC BEH C18 VanGuard Pre-column (2.1 × 5 mm, Waters) and separated using an ACQUITY UPLC BEH C18 column (100 × 1 mm, Waters). ProteinLynx Global server (PLGS) and DynamX software was used for peptide identification and deuterium uptake analysis, respectively. PyMOL 2.5 was used for structural visualization.

[8] = Liver histology (H&E); format: in vivo; conditions: mouse, in vivo
Method: as §1, with “3. […]” for “3.”

Structure (SMILES): Clc1cnc(Oc2ccc(Oc3ncc(Cl)cc3Cl)cc2)c(Cl)c1 [TCPOBOP, 1,4-bis-[2-(3,5,-dichloropyridyloxy)] benzene, reference compound]
- liver weight / liver-to-body weight ratio [1]: significantly increased
- mCAR target gene activation ([2]; WT male mice, 3 mg/kg i.p. once, livers after 3 days): highly activate mCAR target genes

- Kd [3]: 790 nM and 780 nM
- EC50 ([4]; read-out: HEK293 GAL4-hCAR EC50): 2360 nM
- Tm [5]: 57.7 °C
Structure (SMILES): CCCC(c1c[nH]c2ccccc12)c1c[nH]c2ccccc12 [nDIB]

- Kd [3]: 6000 nM
- HEK293 GAL4-hCAR EC50 [4]: Ambiguous
- Tm [5]: 59.1 °C
Structure (SMILES): CCC(c1c[nH]c2ccccc12)c1c[nH]c2ccccc12 [DIP, 3,3’-diindolylpropane]

- HEK293 GAL4-hCAR EC50 [4]: Ambiguous
- Tm [5]: 58.3 °C
Structure (SMILES): CC(C)C(c1c[nH]c2ccccc12)c1c[nH]c2ccccc12 [iDIB, 3,3’-diindolyl-iso-butane]

Structure (SMILES): Clc1ccc(-c2nc3sccn3c2C=NOCc2ccc(Cl)c(Cl)c2)cc1 [CITCO, 6-(4-chlorophenyl)imidazo[2,1-b][1,3]thiazole-5-carbaldehyde-O-(3,4-dichlorobenzyl)oxime, reference compound]
- PGC1α cofactor recruitment [6]: able to increase PGC1α recruitment beyond ‘constitutive’ levels
- deuterium uptake change, residues 235–243 (H12/AF2) [7]: decreased deuterium uptake
- deuterium uptake difference, amino acids 217–234 (H11) [7]: > 20%
- difference in deuterium uptake compared to apo hCAR, amino acids 51–65 (H3) [7]: > 20%
- stabilization of CAR-LBD-SRC1 fusion (thermal stability) [5]: no effect on thermal stability

- stabilization of CAR-LBD-SRC1 fusion (thermal stability) [5]: preferential stabilization
Structure (SMILES): CC(C)(c1ccc(O)cc1)c1ccc(O)cc1 [BPA, bisphenol A, reference compound]

Structure (SMILES): C[C@]12CC[C@@H](O)C[C@@H]1CC[C@@H]1[C@@H]2CC[C@]2(C)C=CC[C@@H]12 [And, androstenol, reference compound]
- liver histology (H&E) findings [8]: occasional focal inflammation and mild cholangitis
- CAR target gene expression after pre-treatment with inverse agonist ([2]; 100 mg/kg i.p. 15 min prior to first DIM or DIE treatment): greatly reduced target gene expression
- sult2a1 expression in liver ([2]; WT or Nr1i3-/- mice): did not show significant responses
- cyp3a11 expression in liver ([2]; mouse liver, with or without And pre-treatment): increase rather than a decrease
